These results are taken from US20050175555A1, “Polyunsaturated linear aldehydes and their derivatives with anti-radical and anti-tumoral activity” (priority 2002, published 2005).

In this test the test system is UV-induced erythema. The test is described as follows: UV-induced erythema prevention test. The conditions noted are these: guinea pig ear, UV lamp 30 sec, 10% suspension topical, approx. 3 hours. Format: in vivo. The method, then:
UV-induced erythema was caused by applying a UV lamp (Hanoivna Kramager) to the ear of a guinea pig for 30 sec; the lamp transmitted rays with a wavelength of […], which consequently included UV-B, UV-C and UV-A rays, through a special filter.
Excipients only or a suspension containing 5 or 10% 2,4,6,8,10,12,14-hexadecaheptaenol palmitate were spread on the ear of the test animals, and the temperature increase resulting from the UV-induced erythema was measured with a thermoelectric thermometer after approx. 3 hours in the control animals and the test animals.

Regarding `CC=CC=CC=CC=CC=CC=CC=CCOC(=O)CCCCCCCCCCCCCCC` [2,4,6,8,10,12,14-hexadecaheptaenyl palmitate], the “appearance of heat and erythema” value was “inhibited”.
